From PubChem BioAssay (NCI)
“And” between values parts separate entries of the source, which are not always exact repeats. Equal values may be shown once.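 Each compound was tested at five concentrations against cells in 96-well plates for 48 hours. GI50 marks 50% less growth. TGI: total growth inhibition.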

Tests used:
Experiment in all cases: NCI anticancer screen, dose series, 48 h
BT-549 breast = system: BT-549 breast
HOP-62 NSCLC = system: HOP-62 NSCLC
OVCAR-8 ovarian = system: OVCAR-8 ovarian
NCI-H226 lung = system: NCI-H226 lung
A549 NSCLC = system: A549 NSCLC
HS 578T breast = system: HS 578T breast
MCF7 breast = system: MCF7 breast
HT29 colon = system: HT29 colon
SNB-75 CNS = system: SNB-75 CNS
SF-268 CNS = system: SF-268 CNS

CN[C@@H](C)C(=O)N[C@H](C(=O)N1CCC[C@H]1C(=O)N[C@H]1c2ccccc2C[C@H]1OCC#CC#CCO[C@@H]1Cc2ccccc2[C@@H]1NC(=O)[C@@H]1CCCN1C(=O)[C@@H](NC(=O)[C@H](C)NC)C1CCCCC1)C1CCCCC1
GI50 (BT-549 breast): < 0.01 µM | GI50 (HOP-62 NSCLC): 0.422 µM | TGI (HOP-62 NSCLC): 16 µM | GI50 (OVCAR-8 ovarian): 0.452 µM | TGI (OVCAR-8 ovarian): 8.31 µM | GI50 (NCI-H226 lung): 19.6 µM | TGI (NCI-H226 lung): 41.5 µM | GI50 (A549 NSCLC): 15.5 µM | TGI (A549 NSCLC): 31.5 µM | GI50 (HS 578T breast): 4.62 µM | TGI (HS 578T breast): 12.1 µM | GI50 (MCF7 breast): 1.47 µM | TGI (MCF7 breast): 3.23 µM | GI50 (HT29 colon): 3.68 µM | TGI (HT29 colon): 12.6 µM | GI50 (SNB-75 CNS): < 0.01 µM | TGI (SNB-75 CNS): 1.16 µM | GI50 (SF-268 CNS): 5.58 µM | TGI (SF-268 CNS): 13.5 µM

Cc1ccccc1NC(=O)N/C(N)=N/c1nc(-c2cccc([N+](=O)[O-])c2)cs1
GI50 (BT-549 breast): 2.16 µM | TGI (BT-549 breast): 5.37 µM | GI50 (HOP-62 NSCLC): 1.92 µM | TGI (HOP-62 NSCLC): 7.47 µM | GI50 (OVCAR-8 ovarian): 2.88 µM | TGI (OVCAR-8 ovarian): 15.2 µM | GI50 (NCI-H226 lung): 2.17 µM | TGI (NCI-H226 lung): 7.02 µM | GI50 (A549 NSCLC): 2.39 µM | TGI (A549 NSCLC): 6.98 µM | GI50 (HS 578T breast): 2.17 µM | TGI (HS 578T breast): 7.31 µM | GI50 (MCF7 breast): 1.47 µM | TGI (MCF7 breast): > 100 µM | GI50 (HT29 colon): 2.78 µM | TGI (HT29 colon): 64 µM | GI50 (SNB-75 CNS): 1.28 µM | TGI (SNB-75 CNS): 3.62 µM | GI50 (SF-268 CNS): 2.67 µM | TGI (SF-268 CNS): 8.88 µM

Cc1cc(I)cc(CN(C)CCCN2CCSCC2)c1O
GI50 (BT-549 breast): 14.8 µM | TGI (BT-549 breast): 32.6 µM | GI50 (HOP-62 NSCLC): 18.4 µM | TGI (HOP-62 NSCLC): 41.9 µM | GI50 (OVCAR-8 ovarian): 34.8 µM | TGI (OVCAR-8 ovarian): > 100 µM | GI50 (NCI-H226 lung): 39.5 µM | TGI (NCI-H226 lung): > 100 µM | GI50 (A549 NSCLC): 30.7 µM | TGI (A549 NSCLC): > 100 µM | GI50 (HS 578T breast): 19.1 µM | TGI (HS 578T breast): 48.3 µM | GI50 (MCF7 breast): 18.5 µM | TGI (MCF7 breast): 40.5 µM | GI50 (HT29 colon): 18.8 µM | TGI (HT29 colon): 43.1 µM | GI50 (SNB-75 CNS): 30.6 µM | TGI (SNB-75 CNS): > 100 µM | GI50 (SF-268 CNS): 28.4 µM | TGI (SF-268 CNS): > 100 µM

CC12OC(c3ccccc3)=CC(c3ccc(Cl)cc3)=C1C(c1ccccc1)=CC2=O (centres undefined)
GI50 (BT-549 breast): > 100 µM | TGI (BT-549 breast): > 100 µM | GI50 (HOP-62 NSCLC): > 100 µM | TGI (HOP-62 NSCLC): > 100 µM | GI50 (OVCAR-8 ovarian): > 100 µM | TGI (OVCAR-8 ovarian): > 100 µM | GI50 (NCI-H226 lung): 68.1 µM | TGI (NCI-H226 lung): > 100 µM | GI50 (A549 NSCLC): 89.1 µM | TGI (A549 NSCLC): > 100 µM | GI50 (HS 578T breast): > 100 µM | TGI (HS 578T breast): > 100 µM | GI50 (MCF7 breast): 60.8 µM | TGI (MCF7 breast): > 100 µM | GI50 (HT29 colon): 27.7 µM | TGI (HT29 colon): > 100 µM | GI50 (SNB-75 CNS): 33.4 µM | TGI (SNB-75 CNS): > 100 µM | GI50 (SF-268 CNS): > 100 µM | TGI (SF-268 CNS): > 100 µM

CCOC(=O)C(Cc1c[nH]c2ccc(N)cc12)(NC(C)=O)C(=O)OCC
GI50 (BT-549 breast): 588 µM | TGI (BT-549 breast): > 1000 µM | GI50 (HOP-62 NSCLC): > 1000 µM | TGI (HOP-62 NSCLC): > 1000 µM | GI50 (OVCAR-8 ovarian): > 1000 µM | TGI (OVCAR-8 ovarian): > 1000 µM | GI50 (NCI-H226 lung): > 1000 µM | TGI (NCI-H226 lung): > 1000 µM | GI50 (A549 NSCLC): > 1000 µM | TGI (A549 NSCLC): > 1000 µM | GI50 (HS 578T breast): > 1000 µM | TGI (HS 578T breast): > 1000 µM | GI50 (MCF7 breast): > 1000 µM | TGI (MCF7 breast): > 1000 µM | GI50 (HT29 colon): > 1000 µM | TGI (HT29 colon): > 1000 µM | GI50 (SNB-75 CNS): > 1000 µM | TGI (SNB-75 CNS): > 1000 µM | GI50 (SF-268 CNS): > 1000 µM | TGI (SF-268 CNS): > 1000 µM

Cn1ccnc1CC(C)(O)c1ccccc1 (centres undefined)
TGI (BT-549 breast): > 100 µM | TGI (HOP-62 NSCLC): > 100 µM | TGI (OVCAR-8 ovarian): > 100 µM | TGI (NCI-H226 lung): > 100 µM | TGI (A549 NSCLC): > 100 µM | TGI (HS 578T breast): > 100 µM | TGI (MCF7 breast): > 100 µM | TGI (HT29 colon): > 100 µM | TGI (SNB-75 CNS): > 100 µM | TGI (SF-268 CNS): > 100 µM

CCOC(=O)Nc1nc2ccc(Cn3cccc3)cc2[nH]1
TGI (BT-549 breast): > 100 µM | TGI (HOP-62 NSCLC): > 67.1 µM | TGI (OVCAR-8 ovarian): > 100 µM | TGI (NCI-H226 lung): 32.1 µM | TGI (A549 NSCLC): > 100 µM | TGI (HS 578T breast): > 100 µM | TGI (MCF7 breast): > 100 µM | TGI (HT29 colon): > 56.3 µM | TGI (SNB-75 CNS): 2.11 µM | TGI (SF-268 CNS): > 100 µM

COc1ccc([N+](=O)[O-])c2c(NCCCN(C)C)c3ccccc3nc12
TGI (BT-549 breast): 2.83 µM | TGI (HOP-62 NSCLC): 0.399 µM | TGI (OVCAR-8 ovarian): 4.9 µM | TGI (NCI-H226 lung): 0.862 µM | TGI (A549 NSCLC): 0.895 µM | TGI (HS 578T breast): 4.29 µM | TGI (MCF7 breast): 0.203 µM | TGI (HT29 colon): 1.22 µM | TGI (SNB-75 CNS): 0.802 µM | TGI (SF-268 CNS): 3.44 µM

COC(=O)CCc1cc(OC)c2c(c1)C(C(=O)OC)C(c1ccc(OC)c(OC)c1)O2 (centres undefined)
TGI (BT-549 breast): > 100 µM | GI50 (HOP-62 NSCLC): > 100 µM and 36.6 µM | TGI (HOP-62 NSCLC): > 100 µM | GI50 (OVCAR-8 ovarian): > 100 µM and 39.6 µM | TGI (OVCAR-8 ovarian): > 100 µM | TGI (NCI-H226 lung): > 100 µM and 54.5 µM | GI50 (A549 NSCLC): > 100 µM and 38 µM | TGI (A549 NSCLC): > 100 µM | GI50 (HS 578T breast): > 100 µM and 43.4 µM | TGI (HS 578T breast): > 100 µM | TGI (MCF7 breast): > 100 µM | TGI (HT29 colon): > 100 µM | TGI (SNB-75 CNS): 50.6 µM | GI50 (SF-268 CNS): > 100 µM and 37.9 µM | TGI (SF-268 CNS): > 100 µM

O=C(O[C@H]1CN[C@H](C#Cc2cc3ncnc(Nc4ccc5c(ccn5Cc5cc(F)ccc5F)c4)c3s2)C1)N1CCOCC1
GI50 (BT-549 breast): 4.32 µM | TGI (BT-549 breast): 11 µM | GI50 (HOP-62 NSCLC): 3.22 µM | TGI (HOP-62 NSCLC): 8.06 µM | GI50 (OVCAR-8 ovarian): 4.11 µM | TGI (OVCAR-8 ovarian): 15.4 µM | GI50 (NCI-H226 lung): 3.2 µM | TGI (NCI-H226 lung): 9.64 µM | GI50 (A549 NSCLC): 3.07 µM | TGI (A549 NSCLC): 10.1 µM | GI50 (HS 578T breast): 0.488 µM | TGI (HS 578T breast): > 25 µM | GI50 (MCF7 breast): 4.13 µM | TGI (MCF7 breast): > 14.5 µM | GI50 (HT29 colon): 3.86 µM | TGI (HT29 colon): 8.97 µM | GI50 (SNB-75 CNS): 0.853 µM | TGI (SNB-75 CNS): 6.21 µM | GI50 (SF-268 CNS): 3.23 µM | TGI (SF-268 CNS): 8.8 µM
